These results are taken from patent publication US9175003B2, “Substituted azoanthracene derivatives and intermediates for preparation thereof” (TransTech Pharma, LLC, priority 2009, dated 2015).

One may read the EC50 as the midpoint of the concentration-response curve.

Chain of human GLP-1 receptor (P43220 24-463): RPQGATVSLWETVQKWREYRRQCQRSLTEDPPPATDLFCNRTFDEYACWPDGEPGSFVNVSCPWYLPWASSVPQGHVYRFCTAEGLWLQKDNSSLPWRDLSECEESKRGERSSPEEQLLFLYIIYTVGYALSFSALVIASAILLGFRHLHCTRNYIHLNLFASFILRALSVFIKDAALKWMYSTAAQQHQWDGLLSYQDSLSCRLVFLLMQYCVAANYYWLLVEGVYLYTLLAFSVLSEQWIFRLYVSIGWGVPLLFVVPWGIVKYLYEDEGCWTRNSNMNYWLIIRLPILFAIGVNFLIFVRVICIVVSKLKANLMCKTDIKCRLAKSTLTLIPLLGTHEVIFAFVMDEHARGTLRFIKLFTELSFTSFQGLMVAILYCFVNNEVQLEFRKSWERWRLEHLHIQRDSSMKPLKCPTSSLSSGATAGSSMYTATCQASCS

The experiment has as its target human GLP-1 receptor (Homo sapiens (Human), UniProt P43220). The settings on record: read-out: Mean EC50; cAMP, HTRF detection, 30 min at 37° C., HEK-293 cells expressing cloned human GLP-1 receptor. (In TR-FRET formats the signal depends on donor and acceptor labels being close together.)
Protocol: Following overnight incubation of cells, media was removed, and compounds (at concentrations ranging from 0.0001 to 100 μM) were added to monolayer cells in Iscove's modified dulbecco's medium (IMDM), 100 μM RO 20-1724 PDE inhibitor, 0.1% BSA, 2% DMSO in a final volume of 100 μL, and incubated for 30 min at 37° C. […] Alternatively, cells were harvested and combined with compounds in suspension using the buffer and protocol described above. cAMP was quantified using a homogenous time-resolved fluorescence detection system (cAMP dynamic, CIS bio International).
In the case of `CC[C@@H](c1ccccc1)N1Cc2cc3c(cc2C[C@H]1C(=O)N[C@@H](Cc1ccc(-c2ccnc(C)c2C)cc1)C(=O)O)OC[C@H](c1ccc(OC2CCCCC2)cc1)O3` [Example 164, (S)-2-{[(3S,8S)-3-(4-Cyclohexyloxy-phenyl)-7-((S)-1-phenyl-propyl)-2,3,6,7,8,9-hexahydro-[1,4]dioxino[2,3-g]isoquinoline-8-carbonyl]-amino}-3-[4-(2,3-dimethyl-pyridin-4-yl)-phenyl]-propionic acid], the concentration giving a half-maximal response (EC50) came to 62 nM. The same measure for `CC[C@@H](c1ccccc1)N1Cc2cc3c(cc2C[C@H]1C(=O)N[C@@H](Cc1ccc(-c2ccnc(C)c2C)cc1)C(=O)O)OC[C@H](c1ccc(OCCN(C)C)cc1)O3` [Example 165, (S)-2-{[(3S,8S)-3-[4-(2-Dimethylamino-ethoxy)-phenyl]-7-((S)-1-phenyl-propyl)-2,3,6,7,8,9-hexahydro-[1,4]dioxino[2,3-g]isoquinoline-8-carbonyl]-amino}-3-[4-(2,3-dimethyl-pyridin-4-yl)-phenyl]-propionic acid]: 396 nM. The value for `CCC(CC)Oc1ccc([C@H]2COc3cc4c(cc3O2)CN([C@@H](CC)c2ccccc2)[C@H](C(=O)N[C@@H](Cc2ccc(-c3ccnc(C)c3C)cc2)C(=O)O)C4)cc1` [Example 166, (S)-3-[4-(2,3-Dimethyl-pyridin-4-yl)-phenyl]-2-{[(3S,8S)-3-[4-(1-ethyl-propoxy)-phenyl]-7-((S)-1-phenyl-propyl)-2,3,6,7,8,9-hexahydro-[1,4]dioxino[2,3-g]isoquinoline-8-carbonyl]-amino}-propionic acid] was 22 nM. The same measure for `CC[C@@H](c1ccccc1)N1Cc2cc3c(cc2C[C@H]1C(=O)N[C@@H](Cc1ccc(-c2ccnc(C)c2C)cc1)C(=O)O)OC[C@H](c1ccc(OCCC2CCCC2)cc1)O3` [Example 167, (S)-2-{[(3S,8S)-3-[4-(2-Cyclopentyl-ethoxy)-phenyl]-7-((S)-1-phenyl-propyl)-2,3,6,7,8,9-hexahydro-[1,4]dioxino[2,3-g]isoquinoline-8-carbonyl]-amino}-3-[4-(2,3-dimethyl-pyridin-4-yl)-5 phenyl]-propionic acid]: 174 nM; for `CC[C@@H](c1ccccc1)N1Cc2cc3c(cc2C[C@H]1C(=O)N[C@@H](Cc1ccc(-c2ccnc(C)c2C)cc1)C(=O)O)OC[C@H](c1ccc(OCCC(C)(C)C)cc1)O3` [Example 168, (S)-2-{[(3S,8S)-3-[4-(3,3-Dimethyl-butoxy)-phenyl]-7-((S)-1-phenyl-propyl)-2,3,6,7,8,9-hexahydro-[1,4]dioxino[2,3-g]isoquinoline-8-carbonyl]-amino}-3-[4-(2,3-dimethyl-pyridin-4-yl)-phenyl]-propionic acid]: 114 nM; for `CC[C@@H](c1ccccc1)N1Cc2cc3c(cc2C[C@H]1C(=O)N[C@@H](Cc1ccc(-c2ccnc(C)c2C)cc1)C(=O)O)OC[C@H](c1ccc(OCc2cccnc2)cc1)O3` [Example 169, (S)-3-[4-(2,3-Dimethyl-pyridin-4-yl)-phenyl]-2-({(3S,8S)-7-((S)-1-phenyl-propyl)-3-[4-(pyridin-3-ylmethoxy)-phenyl]-2,3,6,7,8,9-hexahydro-[1,4]dioxino[2,3-g]isoquinoline-8-carbonyl}-amino)-propionic acid]: 116 nM.

For the compound `CCOc1ccc([C@H]2COc3cc4c(cc3O2)CN([C@@H](CC)c2ccccc2)[C@H](C(=O)N[C@@H](Cc2ccc(-c3ccnc(C)c3C)cc2)C(=O)O)C4)cc1` [Example 170, (S)-3-[4-(2,3-Dimethyl-pyridin-4-yl)-phenyl]-2-{[(3S,8S)-3-(4-ethoxy-phenyl)-7-((S)-1-phenyl-propyl)-2,3,6,7,8,9-hexahydro-[1,4]dioxino[2,3-g]isoquinoline-8-carbonyl]-amino}-propionic acid], the half-maximal effective concentration (EC50) is 538 nM.
